From patent publication US7893074B2, “2, 4-pyrimidinediamines useful in the treatment of neoplastic diseases, inflammatory and immune system disorders” (Novartis AG, priority 2003, dated 2011)
Where two headings read alike, the source gives them in different places.

Experiments:
[1] = target: Focal Adhesion Kinase (FAK) (Homo sapiens, UniProt Q05397); test: FAK assay system (Focal Adhesion Kinase inhibition); type: biochemical
IGF-IR = IGF-IR (Homo sapiens, UniProt P08069); test: Cellular Capture ELISA of IGF-I induced autophosphorylation of the IGF-IR; type: cell-based; details: read-out: IGF-1R IC50
Experimental: In this assay the activity of the compounds of the invention against Insulin-like growth factor I (IGF-I) induced autophosphorylation of the IGF-IR is determined.

[2] = tested on: Mouse mammary carcinoma 4T1 cells; test: Anchorage-independent tumor cell growth assay; type: cell-based; details: Mus musculus, 4T1
Experimental: Cells are cultured for 2 h and inhibitors are added at various concentrations in a final concentration of 0.1% DMSO. After 48 h, cell growth is assayed with the cell counting kit-8 (Wako Pure Chemical), which uses a water soluble tetrazolium salt WST8. Twenty μL of the reagent is added into each well and cells are further cultured for 2 h. The optical density is measured at 450 nm.

FAK = FAK (Mus musculus, UniProt P34152); test: Phos IC50 (phosphorylation); type: cell-based
Sequence of FAK (P34152 2-1052): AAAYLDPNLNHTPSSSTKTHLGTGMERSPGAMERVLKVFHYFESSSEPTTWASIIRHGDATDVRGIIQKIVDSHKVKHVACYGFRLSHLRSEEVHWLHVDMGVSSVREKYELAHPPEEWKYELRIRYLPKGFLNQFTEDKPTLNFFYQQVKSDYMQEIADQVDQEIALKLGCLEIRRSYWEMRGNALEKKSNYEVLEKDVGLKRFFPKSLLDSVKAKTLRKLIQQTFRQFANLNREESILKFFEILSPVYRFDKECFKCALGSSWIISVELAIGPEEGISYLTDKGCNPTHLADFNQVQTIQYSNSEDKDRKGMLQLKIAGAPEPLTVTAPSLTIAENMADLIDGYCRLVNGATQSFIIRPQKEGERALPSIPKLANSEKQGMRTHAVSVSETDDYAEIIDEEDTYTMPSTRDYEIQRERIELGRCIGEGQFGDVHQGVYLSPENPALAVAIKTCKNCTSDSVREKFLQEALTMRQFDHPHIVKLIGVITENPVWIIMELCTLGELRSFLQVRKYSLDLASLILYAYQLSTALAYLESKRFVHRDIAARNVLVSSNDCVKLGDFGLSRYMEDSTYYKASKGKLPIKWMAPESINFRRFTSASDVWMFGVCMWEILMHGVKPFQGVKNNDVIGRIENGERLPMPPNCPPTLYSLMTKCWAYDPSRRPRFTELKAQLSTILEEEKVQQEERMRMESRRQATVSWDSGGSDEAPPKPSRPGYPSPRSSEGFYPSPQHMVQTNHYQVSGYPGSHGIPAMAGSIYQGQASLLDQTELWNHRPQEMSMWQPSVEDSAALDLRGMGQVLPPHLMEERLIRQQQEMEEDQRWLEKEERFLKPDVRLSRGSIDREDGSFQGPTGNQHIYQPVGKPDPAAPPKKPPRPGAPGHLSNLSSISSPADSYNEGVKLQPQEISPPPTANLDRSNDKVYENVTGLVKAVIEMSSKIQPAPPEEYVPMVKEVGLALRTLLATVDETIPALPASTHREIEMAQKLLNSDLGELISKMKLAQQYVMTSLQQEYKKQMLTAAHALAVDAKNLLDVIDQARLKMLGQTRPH

Sequence of Focal Adhesion Kinase (FAK) (Q05397 384-706): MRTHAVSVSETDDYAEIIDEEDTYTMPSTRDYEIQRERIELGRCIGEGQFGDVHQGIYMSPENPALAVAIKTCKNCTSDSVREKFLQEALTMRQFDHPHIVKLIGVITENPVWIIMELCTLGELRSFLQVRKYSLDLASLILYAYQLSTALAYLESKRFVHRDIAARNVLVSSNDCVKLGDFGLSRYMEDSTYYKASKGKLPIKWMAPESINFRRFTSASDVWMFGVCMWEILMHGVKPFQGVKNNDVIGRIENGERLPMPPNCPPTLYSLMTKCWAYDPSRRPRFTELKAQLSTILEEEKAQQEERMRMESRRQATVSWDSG
Sequence of IGF-IR (P08069 31-1367): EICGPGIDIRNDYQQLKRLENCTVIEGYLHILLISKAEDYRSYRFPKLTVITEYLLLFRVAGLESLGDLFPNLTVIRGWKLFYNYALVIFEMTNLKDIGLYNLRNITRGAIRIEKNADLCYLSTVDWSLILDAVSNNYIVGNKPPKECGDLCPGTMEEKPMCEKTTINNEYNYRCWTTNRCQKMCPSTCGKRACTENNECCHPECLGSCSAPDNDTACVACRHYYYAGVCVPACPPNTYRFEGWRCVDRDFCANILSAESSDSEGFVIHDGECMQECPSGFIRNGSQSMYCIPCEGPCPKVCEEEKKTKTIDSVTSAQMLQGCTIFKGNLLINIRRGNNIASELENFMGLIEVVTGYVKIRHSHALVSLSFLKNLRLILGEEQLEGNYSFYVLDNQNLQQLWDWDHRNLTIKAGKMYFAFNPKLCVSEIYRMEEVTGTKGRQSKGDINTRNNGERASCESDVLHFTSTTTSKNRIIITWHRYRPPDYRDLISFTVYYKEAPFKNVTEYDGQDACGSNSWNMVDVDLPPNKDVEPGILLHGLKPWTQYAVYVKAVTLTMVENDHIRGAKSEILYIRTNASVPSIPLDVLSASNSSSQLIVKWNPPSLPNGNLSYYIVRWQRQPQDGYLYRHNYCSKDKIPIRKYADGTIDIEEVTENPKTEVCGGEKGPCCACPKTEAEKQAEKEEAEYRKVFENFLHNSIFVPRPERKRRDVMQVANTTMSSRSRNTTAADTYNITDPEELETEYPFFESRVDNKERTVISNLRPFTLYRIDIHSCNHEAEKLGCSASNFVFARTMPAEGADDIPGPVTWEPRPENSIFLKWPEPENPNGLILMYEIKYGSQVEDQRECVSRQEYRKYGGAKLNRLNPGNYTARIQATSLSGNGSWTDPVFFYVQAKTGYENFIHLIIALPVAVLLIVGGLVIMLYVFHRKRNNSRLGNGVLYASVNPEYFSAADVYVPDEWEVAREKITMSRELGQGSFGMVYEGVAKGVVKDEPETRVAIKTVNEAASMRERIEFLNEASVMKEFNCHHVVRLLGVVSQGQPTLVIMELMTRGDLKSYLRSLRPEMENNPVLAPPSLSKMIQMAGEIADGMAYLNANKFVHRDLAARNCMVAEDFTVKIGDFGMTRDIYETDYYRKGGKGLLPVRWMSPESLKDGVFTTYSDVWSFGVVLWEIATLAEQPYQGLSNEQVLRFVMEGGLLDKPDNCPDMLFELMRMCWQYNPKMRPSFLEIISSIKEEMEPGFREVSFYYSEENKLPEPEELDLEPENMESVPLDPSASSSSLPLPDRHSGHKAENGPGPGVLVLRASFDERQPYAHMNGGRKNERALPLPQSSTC

SMILES	IC50 ([1]; read-out: FAK IC50)	IC50 (IGF-IR)	IC50 [2]	IC50 (FAK)	IC50 ([1]; FAK IC50)	IC50 ([1]; FAK assay system, read-out: FAK inhibition IC50)
CNS(=O)(=O)c1ccccc1Nc1nc(Nc2ccc(C)cc2OC)ncc1Br [Example 3-5]	0.021 µM	> 10 µM	2 µM	0.17 µM	–	–
CNS(=O)(=O)c1ccccc1Nc1nc(Nc2cccc3[nH]ccc23)ncc1Br [Example 3-11]	0.009 µM	0.2 µM	0.3 µM	0.04 µM	–	–
CNS(=O)(=O)c1ccccc1Nc1nc(Nc2cccc3cn[nH]c23)ncc1Br [Example 3-13]	–	0.74 µM	0.6 µM	–	0.058 µM	–
CNS(=O)(=O)c1ccccc1Nc1nc(Nc2cc(OC)ccc2OC)ncc1Br [Example 3-15]	0.007 µM	0.94 µM	0.8 µM	0.02 µM	–	–
CNS(=O)(=O)c1ccccc1Nc1nc(Nc2cc(OC)c(OC)cc2C)ncc1Br [Example 3-17]	0.0028 µM	< 0.08 µM	0.2 µM	0.03 µM	–	0.001 to 0.005 µM
CNS(=O)(=O)c1ccccc1Nc1nc(Nc2ccc(N3CCOCC3)cc2OC)ncc1Br [Example 3-19, 2-[5-Bromo-2-(2-methoxy-4-morpholin-4-yl-phenylamino)-pyrimidin-4-ylamino]-N-methyl-benzenesulfonamide]	0.0068 µM	0.1 µM	0.8 µM	0.35 µM	–	–
CNS(=O)(=O)c1ccccc1Nc1nc(Nc2cc(-c3ccc(OC)cc3)ccc2C)ncc1Br [Example 3-25]	0.022 µM	0.81 µM	0.3 µM	0.3 µM	–	–
CNS(=O)(=O)c1ccccc1Nc1nc(Nc2ccc(N3CCC(C(N)=O)CC3)cc2OC)ncc1Br [Example 3-43]	0.0056 µM	0.27 µM	0.11 µM	0.2 µM	–	–
CNS(=O)(=O)c1ccccc1Nc1nc(Nc2ccc(N3CCS(=O)(=O)CC3)cc2OC)ncc1Br [Example 3-44]	0.011 µM	0.09 µM	0.09 µM	0.05 µM	–	–
CNS(=O)(=O)c1ccccc1Nc1nc(Nc2ccc(-n3ccnc3)cc2OC)ncc1Br [Example 3-48]	0.007 µM	0.21 µM	0.3 µM	0.07 µM	–	–
CNS(=O)(=O)c1ccccc1Nc1nc(Nc2ccc(OC)nc2OC)ncc1Br [Example 3-50]	0.013 µM	1.19 µM	1 µM	0.12 µM	–	–
CNS(=O)(=O)c1ccccc1Nc1nc(Nc2cc(-c3ccncc3)ccc2C)ncc1Br [Example 3-54]	0.0009 µM	< 0.08 µM	–	0.01 µM	–	–
CCOc1cc(N2CCOCC2)ccc1Nc1ncc(Br)c(Nc2ccccc2S(=O)(=O)NC)n1 [Example 3-58]	0.021 µM	0.14 µM	0.3 µM	0.08 µM	–	–
CNS(=O)(=O)c1ccccc1Nc1nc(Nc2cc(-c3ccncc3)ccc2OC)ncc1Br [Example 3-65]	0.008 µM	0.15 µM	0.1 µM	0.08 µM	–	–
CNS(=O)(=O)c1ccccc1Nc1nc(Nc2cc(-c3cccnc3)ccc2OC)ncc1Br [Example 3-66]	0.001 µM	0.25 µM	0.07 µM	0.08 µM	–	–
CNS(=O)(=O)c1ccccc1Nc1nc(Nc2ccc(-n3ccnc3C)cc2OC)ncc1Br [Example 3-83]	–	0.68 µM	0.32 µM	–	0.02 µM	–
CCNC1CCN(c2ccc(Nc3ncc(Cl)c(Nc4ccccc4S(=O)(=O)NC(C)C)n3)c(OC)c2)C1 (stereo not shown) [Example 19-2]	–	0.91 µM	0.38 µM	–	0.0016 µM	–
COc1cc(OCC2CCCN(C)C2)ccc1Nc1ncc(Cl)c(Nc2ccccc2S(=O)(=O)NC(C)C)n1 (stereo not shown) [Example 19-3]	–	0.64 µM	0.09 µM	–	< 0.001 µM	–
COc1cc(N2CCC(N(C)C(C)=O)C2)ccc1Nc1ncc(Cl)c(Nc2ccccc2S(=O)(=O)NC(C)C)n1 (stereo not shown) [Example 19-14]	–	0.44 µM	1.13 µM	–	0.0026 µM	–
CNS(=O)(=O)c1ccccc1Nc1nc(Nc2cc(N3CCC(N(C)C)C3)ccc2OC)ncc1Cl (stereo not shown) [Example 20-20]	0.00312 µM	0.1 µM	–	–	–	–
CCCS(=O)(=O)c1ccccc1Nc1nc(Nc2ccc(N3CCC(C(N)=O)CC3)cc2OC)ncc1Cl [Example 26-5]	–	1.5 µM	0.23 µM	–	0.0021 µM	–
CNC1CCN(c2ccc(Nc3ncc(Cl)c(Nc4ccccc4S(=O)(=O)C(C)C)n3)c(OC)c2)C1 (stereo not shown) [Example 28-21]	0.0013 µM	–	0.23 µM	0.1 µM	–	–
COc1cc(N2CCC(N(C)C)C2)ccc1Nc1ncc(Cl)c(Nc2ccccc2S(=O)(=O)C(C)C)n1 (stereo not shown) [Example 28-22]	0.0013 µM	–	0.3 µM	0.1 µM	–	–
COc1cc(N2CCN(C)C(=O)C2)ccc1Nc1ncc(Cl)c(Nc2ccccc2S(=O)(=O)C(C)C)n1 [Example 28-23]	0.0059 µM	–	0.28 µM	0.5 µM	–	–
COc1cc(N2CCC(N3CCNCC3)CC2)ccc1Nc1ncc(Cl)c(Nc2ccccc2S(=O)(=O)C(C)C)n1 [Example 28-25]	0.0039 µM	–	0.13 µM	0.04 µM	–	–

SMILES	IC50 ([1]; read-out: FAK IC50)	IC50 (IGF-IR)	IC50 [2]	IC50 (FAK)	IC50 ([1]; FAK IC50)	IC50 ([1]; FAK assay system, read-out: FAK inhibition IC50)
COc1cc(N2CCN3COCC[C@H]3C2)ccc1Nc1ncc(Cl)c(Nc2ccccc2S(=O)(=O)C(C)C)n1 [Example 28-26]	0.0066 µM	–	0.57 µM	0.2 µM	–	–
COc1cc(OC)c(OC)cc1Nc1ncc(Cl)c(Nc2ccccc2S(=O)(=O)C(C)C)n1 [Example 28-30]	0.0023 µM	–	0.11 µM	0.9 µM	–	–
CC(C)S(=O)(=O)c1ccccc1Nc1nc(Nc2cccc3c2OCC3)ncc1Cl [Example 28-31]	0.0074 µM	–	1.06 µM	0.06 µM	–	–
CCC(CC)S(=O)(=O)c1ccccc1Nc1nc(Nc2ccc(N3CCC(N4CCCCC4)CC3)cc2OC)ncc1Cl [Example 29-2]	0.0033 µM	–	1.1 µM	0.7 µM	–	–
CCC(CC)S(=O)(=O)c1ccccc1Nc1nc(Nc2ccc(N3CCN(C(C)=O)CC3)cc2OC)ncc1Cl [Example 29-3]	0.0056 µM	–	0.99 µM	0.1 µM	–	–
COc1cc(N2CCOCC2)ccc1Nc1ncc(Cl)c(Nc2ccccc2S(=O)(=O)C2CC2)n1 [Example 30-1]	0.022 µM	–	0.89 µM	0.2 µM	–	–
COc1cc(N2CCN(C(C)=O)CC2)ccc1Nc1ncc(Cl)c(Nc2ccccc2S(=O)(=O)C2CC2)n1 [Example 30-2]	0.012 µM	–	0.47 µM	0.2 µM	–	–
COc1cc(N2CCCC(C(N)=O)C2)ccc1Nc1ncc(Cl)c(Nc2ccccc2S(=O)(=O)C2CC2)n1 (stereo not shown) [Example 30-3]	0.019 µM	–	0.68 µM	0.5 µM	–	–
COc1cc(-n2cncn2)ccc1Nc1ncc(Cl)c(Nc2ccccc2S(=O)(=O)C2CC2)n1 [Example 30-4]	0.025 µM	–	0.99 µM	0.3 µM	–	–
COc1cc(CN2CCN(C)CC2)ccc1Nc1ncc(Cl)c(Nc2ccccc2S(=O)(=O)C2CC2)n1 [Example 30-5]	0.0085 µM	–	0.29 µM	2 µM	–	–
COc1cc(N2CCC[C@@H](C(N)=O)C2)ccc1Nc1ncc(Cl)c(Nc2ccccc2S(=O)(=O)C2CC2)n1 [Example 30-6]	0.015 µM	–	1.03 µM	1 µM	–	–
COc1cc(N2CCC(N3CCN(C)CC3)CC2)ccc1Nc1ncc(Cl)c(Nc2ccccc2S(=O)(=O)C2CC2)n1 [Example 30-7]	0.0088 µM	–	0.47 µM	0.6 µM	–	–
COc1cc(F)ccc1Nc1ncc(Cl)c(Nc2ccccc2S(C)(=O)=O)n1 [Example 31-1]	0.03 µM	–	1.6 µM	> 10 µM	–	–
COc1cc(N2CCOCC2)ccc1Nc1ncc(Cl)c(Nc2ccccc2S(C)(=O)=O)n1 [Example 31-2]	–	0.42 µM	0.29 µM	–	0.031 µM	–
COc1cc(N2CCN(C(C)=O)CC2)ccc1Nc1ncc(Cl)c(Nc2ccccc2S(=O)(=O)C2CCCC2)n1 [Example 33-1]	0.0025 µM	–	0.25 µM	0.08 µM	–	–
COc1cc(N2CCOCC2)ccc1Nc1ncc(Cl)c(Nc2ccccc2S(=O)(=O)C2CCCCC2)n1 [Example 34-2]	0.011 µM	–	1.17 µM	0.08 µM	–	–
CCCCCS(=O)(=O)c1ccccc1Nc1nc(Nc2ccc(N3CCOCC3)cc2OC)ncc1Cl [Example 34-3]	0.033 µM	–	2.25 µM	0.19 µM	–	–
COc1cc(N2CCOCC2)ccc1Nc1ncc(Cl)c(Nc2ccccc2S(=O)(=O)CCC(C)C)n1 [Example 34-4]	0.013 µM	–	1.22 µM	> 10 µM	–	–
COc1cc(N2CCOCC2)ccc1Nc1ncc(Cl)c(Nc2ccccc2S(=O)(=O)Cc2ccccc2)n1 [Example 34-5]	0.051 µM	–	5.1 µM	0.36 µM	–	–
COc1cc(N2CCOCC2)ccc1Nc1ncc(Cl)c(Nc2ccccc2S(=O)(=O)c2ccccc2)n1 [Example 34-6]	0.014 µM	–	3 µM	> 10 µM	–	–
CCC[S+]([O-])c1ccccc1Nc1nc(Nc2ccc(F)cc2OC)ncc1Cl (stereo not shown) [Example 34-7]	0.027 µM	–	2.7 µM	> 10 µM	–	–
CCCS(=O)(=O)c1cc(N2CCN(C)CC2)ccc1Nc1nc(Nc2ccc(F)cc2OC)ncc1Cl [Example 34-8]	0.0087 µM	–	1.9 µM	> 10 µM	–	–
CNC(=O)c1cc(N2CCN(C)CC2)ccc1Nc1nc(Nc2ccc(N3CCOCC3)cc2OC)ncc1Cl [Example 35-1]	0.0068 µM	–	1.43 µM	> 10 µM	–	–
CNC(=O)c1cc(N2CCN(C)CC2)ccc1Nc1nc(Nc2cccc3c2ccn3C)ncc1Cl [Example 35-2]	0.0061 µM	–	0.23 µM	0.7 µM	–	–
